In patent US20240316051A1, “A PHARMACEUTICAL COMBINATION AND USE THEREOF” (Ascentage Pharma (Suzhou) Co., Ltd., priority 2021, published 2024):

Biological target: T1, EED (1-441)-His protein (Homo sapiens, UniProt O75530)
T1 construct: 20 nM EED (1-441)-His protein
Experiment: EED-H3K27Me3 peptide competition binding assay by AlphaScreen
Conditions: IC50 class, Table 4B, read-out: Alpha screen
How it was run: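 EED(1-441)-His was preincubated 15 min with compound, then biotin-H3K27Me3(19-33) peptide added for 30 min; both were added as 20 nM solutions in 25 mM HEPES pH 8, 0.02% Tween-20, 0.5% BSA. Ni-chelate acceptor and streptavidin donor beads (10 μg/ml each final) were added for 1 h in the dark at RT. Signal read at 615 nm (680 nm excitation), normalised to controls and fitted to dose-response for IC50.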

T1 sequence (O75530 whole entry): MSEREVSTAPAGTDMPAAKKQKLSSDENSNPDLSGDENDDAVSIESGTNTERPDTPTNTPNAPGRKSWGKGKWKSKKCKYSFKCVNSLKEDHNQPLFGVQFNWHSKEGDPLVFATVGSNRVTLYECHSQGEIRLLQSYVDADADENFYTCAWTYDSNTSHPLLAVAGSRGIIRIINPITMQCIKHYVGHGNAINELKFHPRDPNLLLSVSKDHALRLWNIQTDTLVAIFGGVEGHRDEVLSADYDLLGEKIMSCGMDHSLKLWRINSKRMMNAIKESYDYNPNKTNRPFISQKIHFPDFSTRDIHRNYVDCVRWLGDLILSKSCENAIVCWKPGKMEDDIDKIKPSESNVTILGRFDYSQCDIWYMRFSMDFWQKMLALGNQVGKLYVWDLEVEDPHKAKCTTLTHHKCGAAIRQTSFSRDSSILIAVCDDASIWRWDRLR

Q: How did the IC50 turn out when `CCc1ccc2c(n1)CN(CC(F)(F)F)C(=O)c1ncn3c(NCc4c(F)ccc5c4CCO5)ncc-2c13` [E 12, 7-ethyl-12-(((5-fluoro-2,3-dihydrobenzofuran-4-yl)methyl)amino)-4-(2,2,2-trifluoroethyl)-4,5-dihydro-3H-2,4,6,11,12a-pentaazabenzo[4,5]cycloocta [1,2,3-cd]inden-3-one] was run?
A: < 10 nM

Q: Which IC50 does the source give for `[2H]C([2H])(Nc1ncc2c3c(ncn13)C(=O)N(CC(F)(F)F)Cc1cc(C(=O)N(C)C)ccc1-2)c1c(F)ccc2c1CCO2` [E 24, 12-(((5-fluoro-2,3-dihydrobenzofuran-4-yl)methyl-d2)amino)-N,N-dimethyl-3-oxo-4-(2,2,2-trifluoroethyl)-4,5-dihydro-3H-2,4,11,12a-tetraazabenzo[4, 5]cycloocta[1,2,3-cd]indene-7-carboxamide] here?
A: 10 to 100 nM

Q: With `CCc1ccc2c(n1)CN(CC(C)(F)F)C(=O)c1ncn3c(NCc4c(F)ccc5c4CCO5)ncc-2c13` [E 16, 4-(2,2-difluoropropyl)-7-ethyl-12-(((5-fluoro-2,3-dihydrobenzofuran-4-yl)methyl)amino)-4,5-dihydro-3H-2,4,6,11,12a-pentaazabenzo[4,5]cycloocta [1,2,3-cd]inden-3-one] as the compound, how does the IC50 read?
A: < 10 nM

Q: With `Cc1cnc2n1Cc1cc(C(F)(F)F)ncc1-c1cnc(NCc3c(F)ccc4c3CCO4)n3cnc-2c13` [E 10, N-((5-fluoro-2,3-dihydrobenzofuran-4-yl)methyl)-5-methyl-8-(trifluoromethyl)-6H-2,3,5a,9,12,13a-hexaazabenzo[4,5]cyclopenta[7,8]cycloocta[1,2,3-cd]inden-13-amine] as the compound, how does the IC50 read?
A: < 10 nM

Q: `Cc1ccc2c(n1)CN(CC(F)(F)F)C(=O)c1ncn3c(NCc4c(F)ccc5c4CCCO5)ncc-2c13` [E 39, 12-(((6-fluorochroman-5-yl)methyl)amino)-7-methyl-4-(2,2,2-trifluoroethyl)-4,5-dihydro-3H-2,4,6, 11,12a-pentaazabenzo[4,5]cycloocta[1,2,3-cd] inden-3-one] was tested. Which IC50 did it give?
A: 10 to 100 nM

Q: With `CC(C)c1ccc2c(n1)CN(CC(F)(F)F)C(=O)c1ncn3c(NCc4c(F)ccc5c4CCO5)ncc-2c13` [E 15, 12-(((5-fluoro-2,3-dihydrobenzofuran-4-yl)methyl)amino)-7-isopropyl-4-(2,2,2-trifluoroethyl)-4,5-dihydro-3H-2,4,6,11,12a-pentaazabenzo[4,5] cycloocta[1,2,3-cd]inden-3-one] as the compound, how does the IC50 read?
A: < 10 nM

Q: How did the IC50 turn out when `CC(C)N1CCc2cc(C(F)(F)F)ncc2-c2cnc(NCc3c(F)ccc4c3CCO4)n3cnc(c23)C1=O` [E 31, 13-(((5-fluoro-2,3-dihydrobenzofuran-4-yl)methyl)amino)-4-isopropyl-8-(trifluoromethyl)-5,6-dihydro-2,4,9,12,13a-pentaazabenzo[4,5]cyclonona[1,2,3-cd]inden-3(4H)-one] was run?
A: 10 to 100 nM

Q: With `CCc1cnc2n1Cc1nc(C)ccc1-c1cnc(NCc3c(F)ccc4c3CCO4)n3cnc-2c13` [E 38, 5-ethyl-N-((5-fluoro-2,3-dihydrobenzofuran-4-yl)methyl)-8-methyl-6H-2,3,5a,7,12,13a-hexaazabenzo [4,5]cyclopenta[7,8]cycloocta[1,2,3-cd]inden-1 3-amine] as the compound, how does the IC50 read?
A: 10 to 100 nM

Same assay, conditions: Table 4A, read-out: Alpha screen

Q: `O=C1c2ncn3c(NCc4c(F)ccc5c4CCO5)ncc(c23)-c2ccc(C(F)(F)F)cc2CN1C1CC1` [Compound 67, 4-cyclopropyl-12-(((5-fluoro-2,3-dihydrobenzo-furan-4-yl)methyl)amino)-7-(trifluoromethyl)-4,5-dihydro-3H-2,4,11,12a-tetraazabenzo[4,5]cycloocta [1,2,3-cd]inden-3-one] was tested. Which IC50 did it give?
A: 2.87 nM

Q: Which IC50 does the source give for `O=C1c2ncn3c(NCc4c(F)ccc5c4CCO5)ncc(c23)-c2cnc(C(F)(F)F)cc2CN1CC(F)(F)F` [Compound 84, 12-(((5-fluoro-2,3-dihydrobenzofuran-4-yl)methyl)amino)-4-(2,2,2-trifluoroethyl)-7-(trifluoromethyl)-4,5-dihydro-3H-2,4,8,11,12a-pentaazabenzo[4,5] cycloocta[1,2,3-cd]inden-3-one] here?
A: 3.07 nM

Q: For `CN1CCC(CN2Cc3cc(C(F)(F)F)ncc3-c3cnc(NCc4c(F)ccc5c4CCO5)n4cnc(c34)C2=O)CC1` [Compound 38, 12-(((5-fluoro-2,3-dihydrobenzofuran-4-yl)methyl)amino)-4-((1-methylpiperidin-4-yl)methyl)-7-(trifluoromethyl)-4,5-dihydro-3H-2,4,8,11,12a-pentaazabenzo[4,5]cycloocta[1,2,3-cd]inden-3-one], which IC50 is on record?
A: 1.25 nM

Q: With `O=C1c2ncn3c(NCc4c(F)ccc5c4CCO5)ncc(c23)-c2cnc(C(F)(F)F)cc2CN1CC1CCOCC1` [Compound 45, 12-(((5-fluoro-2,3-dihydrobenzofuran-4-yl)methyl)amino)-4-((tetrahydro-2H-pyran-4-yl)methyl)-7-(trifluoromethyl)-4,5-dihydro-3H-2,4,8,11,12a-pentaazabenzo[4,5]cycloocta[1,2,3-cd]inden-3-one] as the compound, how does the IC50 read?
A: 3.39 nM

Q: For `O=S1(=O)Cc2ncccc2-c2cnc(NCc3c(F)ccc4c3CCO4)n3cnc1c23` [Compound 94, 11-(((5-fluoro-2,3-dihydrobenzofuran-4-yl)methyl)amino)-4H-3-thia-2,5,10,11a-tetraazadibenzo [cd,f]azulene 3,3-dioxide], which IC50 is on record?
A: 14 nM

Q: Which IC50 does the source give for `COc1cccc(F)c1CNc1ncc2c3c(ncn13)C(=O)N(C1CC1)Cc1nc(C(F)(F)F)ccc1-2` [Compound 69, 4-cyclopropyl-12-((2-fluoro-6-methoxybenzyl)amino)-7-(trifluoromethyl)-4,5-dihydro-3H-2,4,6, 11,12a-pentaazabenzo[4,5]cycloocta[1,2,3-cd] inden-3-one] here?
A: 19.8 nM

Q: With `O=C1NCc2cc(C(F)(F)F)ccc2-c2cnc(NCc3c(F)ccc4c3CCO4)n3cnc1c23` [Compound 19, 12-(((5-fluoro-2,3-dihydrobenzofuran-4-yl)methyl)amino)-7-(trifluoromethyl)-4,5-dihydro-3H-2,4,11, 12a-tetraazabenzo[4,5]cycloocta[1,2,3-cd]inden-3-one] as the compound, how does the IC50 read?
A: 1.13 nM

Q: For `O=C1c2ncn3c(NCc4c(F)ccc5c4CCO5)ncc(c23)-c2ccc(C(F)(F)F)nc2CN1CC1CCOCC1` [Compound 46, 12-(((5-fluoro-2,3-dihydrobenzofuran-4-yl)methyl)amino)-4-((tetrahydro-2H-pyran-4-yl)methyl)-7-(trifluoromethyl)-4,5-dihydro-3H-2,4,6,11, 12a-pentaazabenzo[4,5]cycloocta[1,2,3-cd]inden-3-one], which IC50 is on record?
A: 1.07 nM

Q: `CN1Cc2nc(C(F)(F)F)ccc2-c2cnc(NCc3c(F)ccc4c3CCO4)n3cnc(c23)C1=O` [Compound 33, 12-(((5-fluoro-2,3-dihydrobenzofuran-4-yl)methyl)amino)-4-methyl-7-(trifluoromethyl)-4,5-dihydro-3H-2,4,6,11,12a-pentaazabenzo[4,5]cycloocta [1,2,3-cd]inden-3-one] was tested. Which IC50 did it give?
A: 1.06 nM

Q: With `O=C1c2ncn3c(NCc4c(F)ccc5c4CCO5)ncc(c23)-c2cnc(C(F)(F)F)cc2CN1CC1COCCO1` (stereo not shown) [Compound 37, 4-((1,4-dioxan-2-yl)methyl)-12-(((5-fluoro-2,3-dihydrobenzofuran-4-yl)methyl)amino)-7-(trifluoro-methyl)-4,5-dihydro-3H-2,4,8,11,12a-pentaazabenzo [4,5]cycloocta[1,2,3-cd]inden-3-one] as the compound, how does the IC50 read?
A: 0.94 nM

Q: For `O=C1c2ncn3c(NCc4c(F)ccc5c4CCO5)ncc(c23)-c2ccc(C(F)(F)F)nc2CN1CC1CCOC1` (stereo not shown) [Compound 52, 12-(((5-fluoro-2,3-dihydrobenzofuran-4-yl)methyl)amino)-4-((tetrahydrofuran-3-yl)methyl)-7-(trifluoro-methyl)-4,5-dihydro-3H-2,4,6,11,12a-pentaaza benzo[4,5]cycloocta[1,2,3-cd]inden-3-one], which IC50 is on record?
A: 0.7 nM

Q: How did the IC50 turn out when `O=C1OCc2cc(C(F)(F)F)ccc2-c2cnc(NCc3c(F)ccc4c3CCO4)n3cnc1c23` [Compound 8, 12-(((5-fluoro-2,3-dihydrobenzofuran-4-yl)methyl)amino)-7-(trifluoromethyl)-3H,5H-4-oxa-2,11,12a-triazabenzo[4,5]cycloocta[1,2,3-cd]inden-3-one] was run?
A: 1.97 nM

Q: `O=C1c2ncn3c(NCc4c(F)ccc5c4CCO5)ncc(c23)-c2nc(C(F)(F)F)ccc2CN1CC1COCCO1` (stereo not shown) [Compound 40, 4-((1,4-dioxan-2-yl)methyl)-12-(((5-fluoro-2,3-dihydrobenzofuran-4-yl)methyl)amino)-8-(trifluoro-methyl)-4,5-dihydro-3H-2,4,9,11,12a-pentaazabenzo [4,5]cycloocta[1,2,3-cd]inden-3-one] was tested. Which IC50 did it give?
A: 10.5 nM

Q: `CC(F)(F)CN1Cc2cc(C(F)(F)F)ccc2-c2cnc(NCc3c(F)ccc4c3CCO4)n3cnc(c23)C1=O` [Compound 63, 4-(2,2-difluoropropyl)-12-(((5-fluoro-2,3-dihydrobenzofuran-4-yl)methyl)amino)-7-(trifluoromethyl)-4,5-dihydro-3H-2,4,11,12a-tetraazabenzo[4,5] cycloocta[1,2,3-cd]inden-3-one] was tested. Which IC50 did it give?
A: 1.89 nM

Q: For `Fc1ccc2c(c1CNc1ncc3c4c(ncn14)COCc1ncccc1-3)CCO2` [Compound 2, N-((5-fluoro-2,3-dihydrobenzofuran-4-yl)methyl)-3H,5H-4-oxa-2,6,11,12a-tetraazabenzo[4,5]cycloocta[1,2,3-cd]inden-12-amine], which IC50 is on record?
A: > 10 nM

Q: How did the IC50 turn out when `O=C1c2ncn3c(NCc4c(F)ccc5c4CCO5)ncc(c23)-c2cnc(C(F)(F)F)cc2CN1C1CC(F)(F)C1` [Compound 85, 4-(3,3-difluorocyclobutyl)-12-(((5-fluoro-2,3-dihydrobenzofuran-4-yl)methyl)amino)-7-(trifluoro-methyl)-4,5-dihydro-3H-2,4,8,11,12a-pentaazabenzo [4,5]cycloocta[1,2,3-cd]inden-3-one] was run?
A: 9.82 nM

Q: How did the IC50 turn out when `CC(C)N1Cc2nc(C(F)(F)F)ccc2-c2cnc(NCc3c(F)ccc4c3CCO4)n3cnc(c23)C1=O` [Compound 59, 12-(((5-fluoro-2,3-dihydrobenzofuran-4-yl)methyl)amino)-4-isopropyl-7-(trifluoromethyl)-4,5-dihydro-3H-2,4,6,11,12a-pentaazabenzo[4,5]cycloocta [1,2,3-cd]inden-3-one] was run?
A: 2.14 nM
